Laboratory results reported in the supplement of paper PMC10307832.

What was measured:
Test in all cases: relative viability (nuclei count vs DMSO), 5 days (fraction); higher = more cells survive
Dinaciclib + Pemetrexed = compound: CCc1cnn2c(NCc3ccc[n+]([O-])c3)cc(N3CCCC[C@H]3CCO)nc12 [Dinaciclib] + Nc1nc2[nH]cc(CCc3ccc(C(=O)N[C@@H](CCC(=O)O)C(=O)O)cc3)c2c(=O)[nH]1 [Pemetrexed] (partner 0.2 µM)
In short: (§1)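 Values are medians from duplicate plates. Each reflects relative viability, defined as the nuclei count of treated wells over that of vehicle wells. Lung cancer cell lines in 1536-well plates were pin-tool dosed one day after seeding with one drug alone or with a fixed anchor-drug dose plus five library-drug doses (not always all listed) in √10 steps, then fixed, stained and imaged at 4× after 5 days.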

Dinaciclib + Olaparib = compound: CCc1cnn2c(NCc3ccc[n+]([O-])c3)cc(N3CCCC[C@H]3CCO)nc12 [Dinaciclib] + O=C(c1cc(Cc2n[nH]c(=O)c3ccccc23)ccc1F)N1CCN(C(=O)C2CC2)CC1 [Olaparib] (partner 8 µM)
In short: as §1

Dinaciclib + Vorinostat = compound: CCc1cnn2c(NCc3ccc[n+]([O-])c3)cc(N3CCCC[C@H]3CCO)nc12 [Dinaciclib] + O=C(CCCCCCC(=O)Nc1ccccc1)NO [Vorinostat] (partner 1 µM)
In short: as §1

Dinaciclib + Alpelisib = compound: CCc1cnn2c(NCc3ccc[n+]([O-])c3)cc(N3CCCC[C@H]3CCO)nc12 [Dinaciclib] + Cc1nc(NC(=O)N2CCC[C@H]2C(N)=O)sc1-c1ccnc(C(C)(C)C(F)(F)F)c1 [Alpelisib] (partner 2 µM)
In short: as §1

Dinaciclib + Decitabine = compound: CCc1cnn2c(NCc3ccc[n+]([O-])c3)cc(N3CCCC[C@H]3CCO)nc12 [Dinaciclib] + Nc1ncn([C@H]2C[C@H](O)[C@@H](CO)O2)c(=O)n1 [Decitabine] (partner 2 µM)
In short: as §1

Cell Line | relative viability (Dinaciclib + Pemetrexed; first compound 0.009487 µM) | relative viability (Dinaciclib + Pemetrexed; first compound 0.03 µM) | relative viability (Dinaciclib + Pemetrexed; first compound 0.09487 µM) | relative viability (Dinaciclib + Pemetrexed; first compound 0.3 µM) | relative viability (Dinaciclib + Olaparib; first compound 0.009487 µM) | relative viability (Dinaciclib + Olaparib; first compound 0.03 µM) | relative viability (Dinaciclib + Olaparib; first compound 0.09487 µM) | relative viability (Dinaciclib + Olaparib; first compound 0.3 µM) | relative viability (Dinaciclib + Vorinostat; first compound 0.009487 µM) | relative viability (Dinaciclib + Vorinostat; first compound 0.03 µM) | relative viability (Dinaciclib + Vorinostat; first compound 0.09487 µM) | relative viability (Dinaciclib + Vorinostat; first compound 0.3 µM) | relative viability (Dinaciclib + Alpelisib; first compound 0.009487 µM) | relative viability (Dinaciclib + Alpelisib; first compound 0.03 µM) | relative viability (Dinaciclib + Alpelisib; first compound 0.09487 µM) | relative viability (Dinaciclib + Alpelisib; first compound 0.3 µM) | relative viability (Dinaciclib + Decitabine; first compound 0.009487 µM) | relative viability (Dinaciclib + Decitabine; first compound 0.03 µM) | relative viability (Dinaciclib + Decitabine; first compound 0.09487 µM) | relative viability (Dinaciclib + Decitabine; first compound 0.3 µM)
NCI-H2228 | 0.309 | 0.152 | 0.0897 | 0.0862 | 0.793 | 0.181 | 0.101 | 0.143 | 0.749 | 0.213 | 0.131 | 0.136 | 0.548 | 0.122 | 0.108 | 0.119 | – | – | – | –
NCI-H1650 | 0.366 | 0.335 | 0.152 | 0.0974 | 0.861 | 0.431 | 0.127 | 0.0993 | 0.798 | 0.175 | 0.119 | 0.125 | – | – | – | – | 0.472 | 0.258 | 0.135 | 0.12
NCI-H1792 | 0.561 | 0.14 | 0.0501 | 0.0374 | 0.425 | 0.185 | 0.0516 | 0.0374 | – | – | – | – | 0.732 | 0.289 | 0.118 | 0.0656 | 0.522 | 0.373 | 0.0508 | 0.0591
NCI-H1563 | 0.704 | 0.393 | 0.161 | 0.13 | – | – | – | – | – | – | – | – | 1.09 | 0.459 | 0.388 | 0.302 | – | – | – | –
IA-LM | – | – | – | – | 0.88 | 0.0461 | 0.0398 | 0.0287 | 0.973 | 0.547 | 0.0376 | 0.0379 | 0.669 | 0.0488 | 0.0282 | 0.0261 | – | – | – | –
CAL-12T | 0.771 | 0.141 | 0.133 | 0.13 | 0.589 | 0.134 | 0.13 | 0.141 | 0.511 | 0.0992 | 0.1 | 0.131 | 0.443 | 0.128 | 0.0835 | 0.115 | – | – | – | –
